Assay results reported in ChEMBL document CHEMBL1129874, “A SHORT AND EFFICIENT SYNTHESIS OF ZAMIFENACIN A MUSCARINIC M3 RECEPTOR ANTAGONIST” (Bioorg Med Chem Lett, 1997).
Activity calls are given as the source filed them.

Tests used:
[1] = species on record: Canis familiaris; assay: Compound was tested for the inhibition of the gastrointestinal motility in dogs; Active; type: functional, organism-based; conditions: Canis lupus familiaris
[2] = species on record: Homo sapiens; assay: Compound was tested for the inhibition of the colonic motility in humans; Active; type: functional, organism-based
[3] = species on record: Homo sapiens; assay: Compound was tested for the inhibition of the small bowel motility in humans; Active; type: functional, organism-based
[4] = target: T1, Muscarinic acetylcholine receptor M2 (Homo sapiens) (UniProt P08172); assay: Evaluated for the in vitro antagonistic activity against muscarinic M2 receptor; Active; type: functional
T1 sequence (whole entry): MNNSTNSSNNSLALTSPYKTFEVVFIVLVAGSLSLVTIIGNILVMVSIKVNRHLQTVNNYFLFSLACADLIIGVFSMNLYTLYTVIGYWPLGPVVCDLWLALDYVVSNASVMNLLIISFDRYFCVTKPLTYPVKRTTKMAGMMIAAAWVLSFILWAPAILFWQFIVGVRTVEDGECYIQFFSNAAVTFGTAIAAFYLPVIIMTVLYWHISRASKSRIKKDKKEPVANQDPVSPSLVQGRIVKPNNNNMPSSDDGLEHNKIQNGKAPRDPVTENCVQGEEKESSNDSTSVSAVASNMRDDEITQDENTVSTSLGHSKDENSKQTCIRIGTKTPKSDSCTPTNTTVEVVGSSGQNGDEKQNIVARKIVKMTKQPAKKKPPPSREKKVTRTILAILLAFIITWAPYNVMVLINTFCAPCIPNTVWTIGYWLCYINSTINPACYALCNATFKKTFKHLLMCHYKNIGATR

[5] = target: Muscarinic acetylcholine receptor M3 (Homo sapiens) (UniProt P20309); assay: Evaluated for the in vivo antagonistic activity against muscarinic M3 receptor; Active; type: functional, organism-based

Measured: Activity

Chain of Muscarinic acetylcholine receptor M3 (Homo sapiens) (P20309 whole entry, looked up): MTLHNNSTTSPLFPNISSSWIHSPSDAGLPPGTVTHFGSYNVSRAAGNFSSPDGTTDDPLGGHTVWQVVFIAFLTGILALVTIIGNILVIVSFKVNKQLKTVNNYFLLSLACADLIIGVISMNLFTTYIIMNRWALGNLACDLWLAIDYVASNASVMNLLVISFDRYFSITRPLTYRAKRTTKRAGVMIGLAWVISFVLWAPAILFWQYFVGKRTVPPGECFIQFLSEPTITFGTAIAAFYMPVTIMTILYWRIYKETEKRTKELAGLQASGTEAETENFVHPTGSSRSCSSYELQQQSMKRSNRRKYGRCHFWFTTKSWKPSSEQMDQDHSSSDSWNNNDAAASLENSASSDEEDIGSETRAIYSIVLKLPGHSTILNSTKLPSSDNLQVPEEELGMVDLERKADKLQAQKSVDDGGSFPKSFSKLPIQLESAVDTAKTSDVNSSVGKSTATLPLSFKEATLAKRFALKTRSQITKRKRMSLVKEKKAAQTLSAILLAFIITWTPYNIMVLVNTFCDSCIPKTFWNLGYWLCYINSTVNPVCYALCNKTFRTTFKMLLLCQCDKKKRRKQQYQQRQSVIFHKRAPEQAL

c1ccc(C(O[C@@H]2CCCN(CCc3ccc4c(c3)OCO4)C2)c2ccccc2)cc1
active: all assays above
